Measured values taken from patent US20180141962A1, “AZACARBAZOLE BTK INHIBITORS” (MERCK SHARP & DOHME CORP., priority 2015, published 2018).
Read-outs that look alike come from different tables or passages of the source.

Biological target: T1, BTK enzyme (recombinant full-length BTK, hBTK) (Homo sapiens, UniProt Q06187)
T1 construct: recombinant protein from baculovirus-transfected Sf9 cells: full-length BTK, 6HIS-tag cleaved; 6HIS (cleaved yes); made in house; host or cells: baculovirus-transfected Sf9 cells
Assay: Btk enzyme activity assay, LANCE TR-FRET
Assay type: biochemical
Settings: 50 pM hBTK, 2 μM biotin-A5-peptide, 25 μM ATP, 60 minute compound & enzyme incubation, 120 minutes reaction
Method: Btk Enzyme Activity Assay Methods
BTK enzymatic activity was determined with the LANCE (Lanthanide Chelate Excite) TR-FRET (lime-resolved fluorescence resonance energy transfer) assay. […] Phosphorylation reactions were allowed to proceed for 120 minutes. […] After 60 minutes incubation with detection reagents, reaction plates were read on a PerkinElmer EnVision plate reader using standard TR-FRET protocol. Briefly, excitation of donor molecules (Eu-chelate:anti-phospho-antibody) with a laser light source at 337 nm produces energy that can be transferred to Dylight-650 acceptor molecules if this donor:acceptor pair is within close proximity. Fluorescence intensity at both 665 nm (acceptor) and 615 nm (donor) are measured and a TR-FRET ratio calculated for each well (acceptor intensity/donor intensity). IC50 values were determined by 4 parameter robust fit of TR-FRET ratio values vs. (Log10) compound concentrations.

[1] = read-out: BTK binding potency IC50

T1 sequence (Q06187 whole entry): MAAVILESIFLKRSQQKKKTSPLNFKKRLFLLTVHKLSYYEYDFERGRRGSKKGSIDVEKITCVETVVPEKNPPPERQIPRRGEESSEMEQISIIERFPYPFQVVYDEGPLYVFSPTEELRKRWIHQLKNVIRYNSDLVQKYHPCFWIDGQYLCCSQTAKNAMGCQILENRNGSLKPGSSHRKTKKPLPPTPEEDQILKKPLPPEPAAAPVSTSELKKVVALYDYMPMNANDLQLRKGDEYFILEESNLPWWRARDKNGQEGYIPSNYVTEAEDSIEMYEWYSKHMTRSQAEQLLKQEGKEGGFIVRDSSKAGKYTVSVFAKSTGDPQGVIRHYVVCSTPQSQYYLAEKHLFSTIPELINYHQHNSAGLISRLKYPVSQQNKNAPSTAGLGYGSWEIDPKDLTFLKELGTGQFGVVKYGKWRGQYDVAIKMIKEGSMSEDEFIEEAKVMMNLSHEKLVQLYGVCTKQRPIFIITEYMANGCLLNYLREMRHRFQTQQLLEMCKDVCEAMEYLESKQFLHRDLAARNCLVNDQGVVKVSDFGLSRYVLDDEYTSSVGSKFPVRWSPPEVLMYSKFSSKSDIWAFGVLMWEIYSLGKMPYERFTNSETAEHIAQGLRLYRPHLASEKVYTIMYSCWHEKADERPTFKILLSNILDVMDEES

| IC50 [1] | IC50 (BTK binding potency IC50 (nM)) | SMILES |
| --- | --- | --- |
| 170 nM | – | NC(=O)c1cnc(N2CCCC3(C2)C(=O)NCC3O)c2c1[nH]c1ccccc12 (mixture of isomers) [Example 86, 1-(4-hydroxy-1-oxo-2,7-diazaspiro[4.5]decan-7-yl)-5H-pyrido[4,3-b]indole-4-carboxamide] |
| 538 nM | – | NC(=O)c1cnc(N2CCC[C@]3(C2)C(=O)NC[C@H]3O)c2c1[nH]c1ccccc12 (stereo in doubt) [Example 17, 1-[(4S,5R)-4-hydroxy-1-oxo-2,7-diazaspiro[4.5]dec-7-yl]-5H-pyrido[4,3-b]indole-4-carboxamide] |
| – | 121 nM | NC(=O)c1cnc(N2CCCC3(CCNC3=O)C2)c2c1[nH]c1ccccc12 (stereo in doubt) [Example 40, 1-[(5R)-1-oxo-2,7-diazaspiro[4.5]dec-7-yl]-5H-pyrido[4,3-b]indole-4-carboxamide] |
| – | 10.7 nM | NC(=O)c1cnc(N2CCCC3(CCNC3=O)C2)c2c1[nH]c1ccccc12 (stereo in doubt) [Example 41, 1-[(5S)-1-oxo-2,7-diazaspiro[4.5]dec-7-yl]-5H-pyrido[4,3-b]indole-4-carboxamide] |
| 0.63 nM | – | NC(=O)c1cnc(N2CCCC3(CCNC3=O)C2)c2c1[nH]c1cc(C3CCNCC3)ccc12 (stereo in doubt) [Example 64, 1-[(5R)-1-oxo-2,7-diazaspiro[4.5]dec-7-yl]-7-piperidin-4-yl-5H-pyrido[4,3-b]indole-4-carboxamide] |
| 384 nM | – | O=C(NO)c1cnc(N2CCCC3(CCNC3=O)C2)c2c1[nH]c1ccccc12 (stereo not shown) [Example 9, N-hydroxy-1-(1-oxo-2,7-diazaspiro[4.5]dec-7-yl)-5H-pyrido[4,3-b]indole-4-carboxamide] |
| 19.4 nM | – | NC(=O)c1cnc(N2CCC3(CC2)CNC(=O)C3)c2c1[nH]c1ccccc12 [Example 10, 1-(3-oxo-2,8-diazaspiro[4.5]dec-8-yl)-5H-pyrido[4,3-b]indole-4-carboxamide] |
| 31.1 nM | – | NC(=O)c1cnc(N2CCC3(CCNC3=O)CC2)c2c1[nH]c1ccccc12 [Example 11, 1-(1-oxo-2,8-diazaspiro[4.5]dec-8-yl)-5H-pyrido[4,3-b]indole-4-carboxamide] |

Second part, the compound before the results:

| SMILES | IC50 [1] | IC50 (BTK binding potency IC50 (nM)) |
| --- | --- | --- |
| CN1C[C@@H](CO)[C@@]2(CCCN(c3ncc(C(N)=O)c4[nH]c5ccccc5c34)C2)C1=O (racemic) [Example 92, trans-1-(4-(hydroxymethyl)-2-methyl-1-oxo-2,7-diazaspiro[4.5]decan-7-yl)-5H-pyrido[4,3-b]indole-4-carboxamide] | 64 nM | – |
| NC(=O)c1cnc(N2CCC[C@@]3(C2)C(=O)NC[C@@H]3c2ccccc2)c2c1[nH]c1ccccc12 (single isomer, unassigned) [Example 88, 1-[(trans)-1-oxo-4-phenyl-2,7-diazaspiro[4.5]dec-7-yl]-5H-pyrido[4,3-b]indole-4-carboxamide] | 77.8 nM | – |
| NC(=O)c1cnc(N2CCC[C@]3(C2)C(=O)NC[C@@H]3c2ccccc2)c2c1[nH]c1ccccc12 (single isomer, unassigned) [Example 89, 1-[(trans)-1-oxo-4-phenyl-2,7-diazaspiro[4.5]dec-7-yl]-5H-pyrido[4,3-b]indole-4-carboxamide] | 669 nM | – |
| CN1CC(CO)C2(CCCN(c3ncc(C(N)=O)c4[nH]c5ccccc5c34)C2)C1=O (single isomer, unassigned) [Example 90, cis-1-(4-(hydroxymethyl)-2-methyl-1-oxo-2,7-diazaspiro[4.5]decan-7-yl)-5H-pyrido[4,3-b]indole-4-carboxamide] | 115 nM | – |
| CN1CC(CO)C2(CCCN(c3ncc(C(N)=O)c4[nH]c5ccccc5c34)C2)C1=O (single isomer, unassigned) [Example 91, cis-1-(4-(hydroxymethyl)-2-methyl-1-oxo-2,7-diazaspiro[4.5]decan-7-yl)-5H-pyrido[4,3-b]indole-4-carboxamide] | 1000 nM | – |
| NC(=O)c1cnc(N2CCCC3(CCNC3=O)C2)c2c1[nH]c1cc(C3CCNCC3)ccc12 (stereo in doubt) [Example 63, 1-[(5S)-1-oxo-2,7-diazaspiro[4.5]dec-7-yl]-7-piperidin-4-yl-5H-pyrido[4,3-b]indole-4-carboxamide] | 6.3 nM | – |
| NC(=O)c1cnc(N2CCC[C@@]3(CCCN(c4ccc(F)cc4)C3=O)C2)c2c1[nH]c1ccccc12 [Example 1, (R)-1-(8-(4-fluorophenyl)-7-oxo-2,8-diazaspiro[5.5]undecan-2-yl)-5H-pyrido[4,3-b]indole-4-carboxamide] | 149 nM | – |
| NC(=O)c1cnc(N2CCC[C@]3(CCCN(c4ccc(F)cc4)C3=O)C2)c2c1[nH]c1ccccc12 [Example 2, (S)-1-(8-(4-fluorophenyl)-7-oxo-2,8-diazaspiro[5.5]undecan-2-yl)-5H-pyrido[4,3-b]indole-4-carboxamide] | 12.9 nM | – |
| NC(=O)c1cnc(N2CCCC3(C2)OCCN(c2ccc(F)cc2)C3=O)c2c1[nH]c1ccccc12 (stereo not shown) [Example 3, 1-(4-(4-fluorophenyl)-5-oxo-1-oxa-4,8-diazaspiro[5.5]undecan-8-yl)-5H-pyrido[4,3-b]indole-4-carboxamide] | 109 nM | – |
| NC(=O)c1cnc(N2CCCC3(CCCN(c4ccc(F)cc4)C3=O)C2)c2c1[nH]c1ccccc12 (stereo not shown) [Example 4, 1-[8-(4-fluorophenyl)-7-oxo-2,8-diazaspiro[5.5]undec-2-yl]-5H-pyrido[4,3-b]indole-4-carboxamide] | 17 nM | – |
| CC(C)c1ccc(N2CCCC3(CCCN(c4ncc(C(N)=O)c5[nH]c6ccccc6c45)C3)C2=O)cc1 (stereo not shown) [Example 5, 1-{8-[4-(1-methylethyl)phenyl]-7-oxo-2,8-diazaspiro[5.5]undec-2-yl}-5H-pyrido[4,3-b]indole-4-carboxamide] | 492 nM | – |
| NC(=O)c1cnc(N2CCC[C@@]3(CCCN(c4ccc(F)cc4)C3=O)C2)c2c1[nH]c1ccc(F)cc12 [Example 6, 8-fluoro-1-[(6R)-8-(4-fluorophenyl)-7-oxo-2,8-diazaspiro[5.5]undec-2-yl]-5H-pyrido[4,3-b]indole-4-carboxamide] | 853 nM | – |
| NC(=O)c1cnc(N2CCC[C@]3(CCCN(c4ccc(F)cc4)C3=O)C2)c2c1[nH]c1ccc(F)cc12 [Example 7, 8-fluoro-1-[(6S)-8-(4-fluorophenyl)-7-oxo-2,8-diazaspiro[5.5]undec-2-yl]-5H-pyrido[4,3-b]indole-4-carboxamide] | 34.2 nM | – |
| NC(=O)c1cnc(N2CCC[C@@]3(CCCN(c4ccc(F)cc4)C3=O)C2)c2c1[nH]c1ccc(C(=O)O)cc12 [Example 8, 4-carbamoyl-1-[(6R)-8-(4-fluorophenyl)-7-oxo-2,8-diazaspiro[5.5]undec-2-yl]-5H-pyrido[4,3-b]indole-8-carboxylic acid] | 12.6 nM | – |
| NC(=O)c1cnc(N2CCC3(CCNC3)CC2)c2c1[nH]c1ccccc12 [Example 12, 1-(2,8-diazaspiro[4.5]dec-8-yl)-5H-pyrido[4,3-b]indole-4-carboxamide] | 35 nM | – |
| CC(C)(C)OC(=O)N1CCC2(CCN(c3ncc(C(N)=O)c4[nH]c5ccccc5c34)CC2)C1 [Example 13, tert-butyl 8-(4-carbamoyl-5H-pyrido[4,3-b]indol-1-yl)-2,8-diazaspiro[4.5]decane-2-carboxylate] | 163 nM | – |
| CC(=O)N1CCC2(CCN(c3ncc(C(N)=O)c4[nH]c5ccccc5c34)CC2)C1 [Example 14, 1-(2-acetyl-2,8-diazaspiro[4.5]dec-8-yl)-5H-pyrido[4,3-b]indole-4-carboxamide] | 26 nM | – |
